Experimental data: patent US7250435B2, “Acylsemicarbazides as cyclin dependent kinase inhibitors useful as anti-cancer and anti-proliferative agents” (Bristol-Myers Squibb Pharma Company, priority 1999, dated 2007)

SMILES	melting point [°C]
COc1ccc(-c2[nH]nc3c2C(=O)c2c(NC(=O)NN(C)C)cccc2-3)cc1 [Example LXIV, 3-(4-methoxyphenyl)-5-(dimethylaminocarbamoyl)aminoindeno[1,2-c]pyrazol-4-one]	> 300
COc1ccc(-c2[nH]nc3c2C(=O)c2c(NC(=O)CCNc4ccncc4)cccc2-3)cc1 [Example XXXV, 3-(4-methoxyphenyl)-5-(4-pyridinylaminomethylacetamido)indeno[1,2-c]pyrazol-4-one]	> 300
CC(=O)Nc1cccc2c1C(=O)c1c-2n[nH]c1C(C)C [Example LXXXVI, 3-(i-propyl)-5-(acetamido)indeno[1,2-c]pyrazol-4-one]	> 250
COc1ccc(-c2[nH]nc3c2C(=O)c2c(NC(=O)NNC(=O)c4ccc(O)c(O)c4)cccc2-3)cc1 [Example CLXI, 3-(4-methoxyphenyl)-5-(2-(3,4-dihydroxybenzoyl)hydrazinecarboxamido)indeno[1,2-c]pyrazol-4-one]	> 300

The remaining lines, values ahead:

melting point [°C]	SMILES
257	COc1ccc(-c2[nH]nc3c2C(=O)c2c(NC(=O)NNC(=O)c4ccccc4N)cccc2-3)cc1 [Example CLXV, 3-(4-methoxyphenyl)-5-(2-(2-aminobenzoyl)hydrazinecarboxamido)indeno[1,2-c]pyrazol-4-one]
> 250	CC(=O)Nc1cccc2c1C(=O)c1c-2n[nH]c1C(C)(C)C [Example LXXXVIII, 3-(t-butyl)-5-(acetamido)indeno[1,2-c]pyrazol-4-one]
258	CN1CCN(CC(=O)Nc2cccc3c2C(=O)c2c-3n[nH]c2-c2ccc(N3CCOCC3)cc2)CC1 [Example LXXXII, 3-(4-(4-morpholinyl)phenyl)-5-((4-methyl-1-piperazinyl)acetamido)indeno[1,2-c]pyrazol-4-one]
269	CC(=O)Nc1cccc2c1C(=O)c1c-2n[nH]c1-c1cccs1 [Example LXXXIX, 3-(2-thienyl)-5-(acetamido)indeno[1,2-c]pyrazol-4-one]
> 300	COc1ccc(-c2[nH]nc3c2C(=O)c2c(NC(=O)NCc4ccc(N)cc4)cccc2-3)cc1 [Example XLIV, 3-(4-methoxyphenyl)-5-(4-aminobenzylcarbamoyl)aminoindeno[1,2-c]pyrazol-4-one]
